Results published in patent US20020059032A1, “Rational selection of putative peptides from identified nucleotide or peptide sequences” (priority 1999, published 2002).
Where a SMILES comes first, the peptide text is derived from it.

biological target: guinea pig brain membranes; experiment: Binding test with guinea pig brain membranes; conditions: tested on guinea pig brain membranes; read-out: IC50 = 100 μM
Procedure: Binding Assay Alternative Protocol by Skatron
The experimental conditions are identical for all the binding assay protocols except for the fact that: i) the volume R in operation is 200 μl; ii) the test carried out in 96-well Falcon plates iii) the reaction is directly stopped by filtration on filterMat (ref. 11734) Skatron and the radioactivity associated with the filtrate is evaluated: either directly with a γ counter for the peptides labelled with […]: or with a […] in the presence of 5 ml of scintillating liquid.
Membrane Preparations of Guinea Pig Brains and Binding Assay
The guinea pigs are sacrificed by rupturing their cervical vertibrae, decapitated, and the brains are removed very rapidly and placed into a sucrose-Tris-HCl buffer (0.32 M sucrose 5 mM, Tris-HCl, 0.1 g/l bacitracin) at 4° C. (about 10 ml of buffer per brain). The brains are then homogenized using a Potter device and the homogenate is placed in incubation for 30 minutes at 37° C. under agitation, then centrifuged twice for 35 minutes at 100,000×g at 4° C. The protein content of the membrane preparations is evaluated according to the Bradford method (BioRad, according to the manufacturers protocol).
Bonding of Labelled Agonists to the Guinea Pig Brain Membrane Preparation The membranes are placed in a buffer (50 mM of Tris-HCl, 5 mM of MgCl2 and 0.1 g/l of bacitracin) at the desired protein concentration (iodized CCK bond, 0.1 mg of protein/ml; iodized gastrin bond: 0.5 mg of proteins/ml). They are then incubated in the presence of a labelled ligand in a total volume of 500 μl (about 10 pM for the iodized CCK8, 20 pM for the iodized gastrin13), 50-80 minutes at 25° C., and in the presence or absence of cold agonists. The reaction is stopped with 3 ml of additional BSA buffer (20 g/l) at 4° C., the tubes are centrifuged at 10,000×g, the supernatant is drawn off and the radioactivity associated with the precipitate is evaluated with a γ counter.

SMILES | IC50
CC(C)C[C@H](NC(=O)[C@H](CC(C)C)NC(=O)[C@@H](N)CO)C(=O)N[C@@H](CO)C(=O)N[C@@H](CCCCN)C(=O)N[C@H](C(=O)N[C@@H](CO)C(=O)N[C@@H](CCC(N)=O)C(N)=O)C(C)C [Example 7, H-SLLSKVSQ-NH2] (H-SLLSKVSQ-NH2) | 430 nM
CSCC[C@H](NC(=O)[C@H](CCC(N)=O)NC(=O)[C@H](CC(C)C)NC(=O)[C@H](CCCCN)NC(=O)[C@@H]1CCCN1C(=O)[C@H](CC(=O)O)NC(=O)[C@H](CCC(N)=O)NC(=O)[C@@H](NC(=O)[C@@H](N)C(C)C)[C@@H](C)O)C(N)=O [Example 8, H-VTQDPKLQM-NH2] (H-VTQDPKLQM-NH2) | 4200 nM
CC[C@H](C)[C@H](NC(=O)[C@H](C)NC(=O)[C@@H](NC(=O)[C@H](CCC(=O)O)NC(=O)[C@H](CCC(=O)O)NC(=O)[C@@H]1CCCN1C(=O)[C@H](Cc1ccccc1)NC(=O)[C@@H](N)CC(=O)O)C(C)C)C(=O)N[C@H](C(=O)N[C@@H](CCC(=O)O)C(=O)N[C@@H](CCC(=O)O)C(=O)N[C@@H](CC(C)C)C(N)=O)C(C)C [Example 9, H-DFPEEVAIVEEL-NH2] (H-DFPEEVAIVEEL-NH2) | 220 nM
CSCC[C@H](N)C(=O)N[C@@H](CC(=O)O)C(=O)N[C@H](C(=O)NCC(=O)NCC(=O)N[C@@H](CC(C)C)C(=O)N[C@@H](CO)C(=O)N[C@@H](CC(=O)O)C(=O)N1CCC[C@H]1C(=O)N[C@@H](Cc1ccc(O)cc1)C(=O)N[C@H](C(=O)N[C@@H](CCCCN)C(=O)N[C@H](C(=O)N[C@@H](Cc1c[nH]cn1)C(=O)N[C@@H](CC(C)C)C(=O)N[C@@H](CC(C)C)C(=O)N[C@@H](CCC(N)=O)C(=O)NCC(N)=O)C(C)C)C(C)C)C(C)C [Example 10, H-MDVGGLSDPYVKVHLLQG-NH2] (H-MDVGGLSDPYVKVHLLQG-NH2) | 30 nM

Continued, values first:

IC50 | SMILES
270 nM | CC(C)C[C@H](NC(=O)[C@H](CO)NC(=O)[C@@H]1CCCN1C(=O)[C@@H](N)CC(=O)O)C(=O)N1CCC[C@H]1C(=O)N[C@H](C(=O)N[C@@H](C)C(=O)N[C@@H](CO)C(=O)N[C@@H](CO)C(=O)N[C@@H](CO)C(=O)N[C@@H](CO)C(=O)N[C@@H](CO)C(=O)N[C@@H](CO)C(=O)N[C@@H](CO)C(=O)N[C@@H](CCCCN)C(=O)N[C@@H](CCCNC(=N)N)C(N)=O)C(C)C [Example 11, H-DPSLPVASSSSSSSKR-NH2] (H-DPSLPVASSSSSSSKR-NH2)
20 nM | CC[C@H](C)[C@H](NC(=O)[C@@H]1CCCN1C(=O)[C@@H](NC(=O)[C@H](Cc1ccccc1)NC(=O)[C@H](CC(C)C)NC(=O)[C@@H](NC(=O)[C@H](CO)NC(=O)CNC(=O)[C@H](CC(C)C)NC(=O)[C@H](CC(C)C)NC(=O)[C@@H]1CCCN1)[C@@H](C)O)[C@@H](C)CC)C(N)=O [Example 12, H-PLLGSTLFIPI-NH2] (H-PLLGSTLFIPI-NH2)
90 nM | CSCC[C@H](NC(=O)[C@H](CCC(N)=O)NC(=O)[C@H](Cc1ccccc1)NC(=O)CNC(=O)[C@H](CO)NC(=O)[C@@H](N)CC(=O)O)C(=O)N[C@@H](CC(N)=O)C(=O)N[C@@H](CCC(N)=O)C(=O)N[C@@H](CC(C)C)C(=O)N[C@@H](CCCNC(=N)N)C(N)=O [Example 13, H-DSGFQMNQLR-NH2] (H-DSGFQMNQLR-NH2)
860 nM | CSCC[C@H](NC(=O)[C@@H](NC(=O)[C@H](CCC(=O)O)NC(=O)[C@H](CCC(=O)O)NC(=O)[C@H](CC(C)C)NC(=O)[C@H](CCC(N)=O)NC(=O)[C@@H](N)CC(C)C)[C@@H](C)O)C(=O)N1CCC[C@H]1C(=O)N[C@@H](CO)C(=O)N1CCC[C@H]1C(=O)N[C@@H](Cc1ccc(O)cc1)C(N)=O [Example 14, H-LQLEETMPSPY-NH2] (H-LQLEETMPSPY-NH2)
360 nM | CC[C@H](C)[C@H](NC(=O)[C@H](CO)NC(=O)[C@@H](N)Cc1ccccc1)C(=O)N[C@@H](C)C(=O)N[C@H](C(=O)N[C@@H](CC(C)C)C(=O)N[C@@H](CCCNC(=N)N)C(=O)N[C@@H](CC(=O)O)C(=O)N[C@@H](Cc1ccccc1)C(=O)NCC(=O)N[C@H](C(N)=O)C(C)C)[C@@H](C)O [Example 15, H-FSIATLRDFGV-NH2] (H-FSIATLRDFGV-NH2)
